Data as given in patent publication US7375124B2, “Use of α-phenylthiocarboxylic and α-phenyloxycarboxylic acids with serum-glucose-lowering and serum-lipid-lowering activity” (Sigma-Tau Industrie Farmaceutiche Riunite S.p.A., priority 2002, dated 2008).

Experiments:
[1] = system: C57BL/KsJ db/db mouse; experiment: Antidiabetic and serum-lipid-lowering activity in the db/db mouse (Experiments I and II); conditions: Experiment II; for Glucose: blood
Source text: Plasma levels of glucose, insulin, triglycerides, cholesterol, free fatty acids and urea were checked for a well-matched distribution of mice in the treatment groups.
At the start of treatment the body weights of the mice were checked and arrangements were made for monitoring water and feed consumption.
In the course of the experiment, serum glucose levels, oral glucose tolerance test (OGTT) findings, a number of lipid status parameters and weight gain were monitored.

[2] = target: T1, PPARγ (Mus musculus, UniProt P37238); experiment: Transactivation assay mediated by PPARγ in NIH-3T3 cells (CAT reporter); assay type: cell-based
T1 construct: expressed in transfected cells; host or cells: NIH-3T3 (mouse embryonal fibroblasts)
T1 sequence (P37238 1-475 isoform P37238-2): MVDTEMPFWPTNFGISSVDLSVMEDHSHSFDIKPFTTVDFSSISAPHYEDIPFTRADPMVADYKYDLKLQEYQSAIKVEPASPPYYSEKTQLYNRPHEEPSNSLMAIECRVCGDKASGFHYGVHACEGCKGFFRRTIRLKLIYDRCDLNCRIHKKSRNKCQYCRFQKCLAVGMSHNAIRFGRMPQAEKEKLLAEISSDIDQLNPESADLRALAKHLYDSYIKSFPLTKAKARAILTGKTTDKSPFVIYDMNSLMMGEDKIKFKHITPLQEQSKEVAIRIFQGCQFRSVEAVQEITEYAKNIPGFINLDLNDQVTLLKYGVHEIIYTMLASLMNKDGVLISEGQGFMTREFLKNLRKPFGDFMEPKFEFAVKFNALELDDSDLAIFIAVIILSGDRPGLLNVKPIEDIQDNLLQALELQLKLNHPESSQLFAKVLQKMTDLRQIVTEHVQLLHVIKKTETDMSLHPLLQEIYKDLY
Source text: A transactivation assay specific for PPARγ thus requires the simultaneous presence of the following in the preselected cell line: • a) a sufficient amount of PPARγ; • b) a sufficient amount of the 9 cis-retinoic acid receptor (RXR); • c) a chimeric plasmid containing the reporter gene controlled by a PPRE, located upstream of a viral heterologous promoter. In our case the reporter gene is chloramphenicol-acetyl transferase (CAT).
In the transactivation assay used, the preselected cells are transfected with the expression vector pSG5 Stop-mPPARg1 which allows the synthesis of the PPARγ receptor by the transfected cell. Simultaneously, a plasmid reporter (pBLCAT2-PPRE) is transfected which contains a peroxisome proliferator response element (PPRE) isolated by the gene promoter for acyl-CoA oxidase, upstream of the heterologous promoter of viral thymidine kinase (TK) fused with the reporter gene CAT. Since the endogenous cell levels of the RXR receptor are sufficiently high, it is not necessary to transfect an expression vector specific for RXR as well. […] Therefore, any increase in CAT levels will be the result of increased gene transcription dependent upon the dimerisation of PPARγ with RXR and upon the heterodimer bond formed with the peroxisome proliferator response element. Together with the expression vector and the reporter vector the cells are also transfected with the plasmid pCH110 which provides the internal control for the efficiency of transfection and the normalisation of the results
A cell line of mouse embryonal fibroblasts (NIH-3T3) was used [Hogan J. C. et al., Biochem Biophys Res Commun. 287 (2), 484-92 (2001)]. The cells were transfected with the reporter plasmid, the expression plasmid coding for the PPARγ receptor and the control vector pCH110. The cells were exposed to increasing concentrations of the study compounds and CAT activity was evaluated. Untreated cells were used as controls.
Mouse embryonal fibroblasts (NIH-3T3) were cultured according to the usual cell culture techniques, at 37° C. in a 5% v/v carbon dioxide atmosphere using as the growth medium DMEM (Dulbecco's modified Eagle's medium) modified with 3.7 g/l of sodium bicarbonate, 4 mM L-glutamine, 4.5 g/l of glucose, 1 mM sodium pyruvate and 10% v/v of calf serum, in the presence of streptomycin 100 μg/ml and penicillin 100 U/ml final.
The cells were co-transfected using the transfection reagent FuGENE6 (Roche), already described in the previous example. Twenty-four hours prior to transfection the cells were plated at a density of 8.0×10^4 cells/well in 12-well plates and maintained at 37° C. in a 5% v/v CO2 atmosphere. The culture medium, devoid of serum, was replaced 2 hours before transfection, and then the cells were treated with the transfection reagent FuGENE6, as described in the previous example. After 5 hours, the transfection medium was replaced by 1 ml of culture medium complete with serum and antibiotics in the presence or absence of the molecules to be tested at 3 different concentrations (2, 20 and 100 μM). Rosiglitazone, a known ligand of PPARγ, was used as the positive reference compound.
The cell protein extracts were prepared and the CAT activity assay was conducted exactly as described in the previous example.
As an internal control for the normalisation of the CAT activity in relation to the transfection efficiency, β-galactosidase activity coded for by the corresponding gene in the co-transfected plasmid pCH110 was used.
β-galatosidase activity was measured exactly as described in the previous example.
For the normalisation of the CAT assay results in relation to […] activity the formula described in the previous example was used.

[3] = after 12 days' treatment, postabsorption, 7.5 hours after last treatment, mean ± S.E.

CC(C)(Sc1cccc(OCCc2ccc(Cl)cc2)c1)C(=O)O [Example 2, 2-[3-[2-(4-chlorophenyl)ethoxy]phenylthio]-2-methylpropanoic acid]
Variation % (glucose) vs control ([1]; after 9 days' treatment, postabsorption, 8 hours after last treatment): −66%
Variation % (AUC glucose at OGTT) vs control ([1]; after 11 days' treatment, OGTT glucose 3 g/kg): −43%
AUC glucose at OGTT ([1]; after 11 days' treatment, OGTT glucose 3 g/kg, fasting 18 hours, 5 hours after last treatment, mean ± S.E.): 24517 ± 2261 a.u.
Variation % (glucose) vs control ([1]; after 11 days' treatment, fasting 18 hours, 5 hours after last treatment): −48%
Variation % (HDL-cholesterol) vs control ([1]; after 12 days' treatment): +19%
Variation % (final b.w.) vs control ([1]; after 12 days' treatment): +5%
Variation % (triglycerides) vs control ([1]; after 12 days' treatment): −44%
Glucose (plasma) ([1]; after 12 days' treatment, postabsorption (fasting 9 a.m. to 4.30 p.m.), 7.5 hours after last treatment, mean ± S.E.): 263 ± 30 mg/dL
Variation % (plasma glucose) vs control ([1]; after 12 days' treatment, postabsorption, 7.5 hours after last treatment): −54%
HDL-choles. (plasma) [1, 3]: 102.5 ± 4.7Δ mg/dl
Triglycerides (plasma) [1, 3]: 48.6 ± 2.5 mg/dL
Glucose ([1]; after 9 days' treatment, postabsorption (fasting 9 a.m. to 5 p.m.), 8 hours after last treatment, mean ± S.E.): 155 ± 21 mg/dL
Glucose ([1]; after 11 days' treatment, fasting 18 hours, 5 hours after last treatment, mean ± S.E.): 128 ± 8 mg/dL
Final b.w. ([1]; final body weight after 12 days' treatment, postabsorption condition, mean ± S.E.): 39.4 ± 0.9 g
Variation % (initial b.w.) vs control ([1]; initial body weight): −3%
Initial b.w. ([1]; initial body weight, postabsorption condition, mean ± S.E.): 37.8 ± 0.5 g
Activation of the gene-reporter CAT as a percentage of the reference compound (rosiglitazone 2 μM = 100%) ([2]; 2 μM): 28.6%
Activation of the gene-reporter CAT as a percentage of the reference compound (rosiglitazone 2 μM = 100%) ([2]; 20 μM): 61.2%
Activation of the gene-reporter CAT as a percentage of the reference compound (rosiglitazone 2 μM = 100%) ([2]; 100 μM): 114.3%
